Experiments:
[1] = test system: Epidermal growth factor receptor (Homo sapiens), P00533 [G719S]; details: Compound concentration 1000.0 nM
[2] = molecular target: Phosphatidylinositol 4-kinase beta (Homo sapiens) (UniProt Q9UBF8); details: Compound concentration 1000.0 nM
[3] = molecular target: Serine/threonine-protein kinase Nek1 (Homo sapiens) (UniProt Q96PY6); details: Compound concentration 1000.0 nM
[4] = molecular target: Calcitonin-gene-related peptide receptor, CALCRL/RAMP1 (Homo sapiens) (UniProt O60894+Q16602); assay: CGRP/HU Eurofins-Panlabs selectivity data (BI); type: protein-complex assay; details: Compound concentration 10.0 uM
[5] = molecular target: Casein kinase I isoform alpha (Homo sapiens) (UniProt P48729); details: Compound concentration 1000.0 nM
[6] = molecular target: Bone morphogenetic protein receptor type-1A (Homo sapiens) (UniProt P36894); details: Compound concentration 1000.0 nM
Sequence of Bone morphogenetic protein receptor type-1A (Homo sapiens) (P36894 whole entry): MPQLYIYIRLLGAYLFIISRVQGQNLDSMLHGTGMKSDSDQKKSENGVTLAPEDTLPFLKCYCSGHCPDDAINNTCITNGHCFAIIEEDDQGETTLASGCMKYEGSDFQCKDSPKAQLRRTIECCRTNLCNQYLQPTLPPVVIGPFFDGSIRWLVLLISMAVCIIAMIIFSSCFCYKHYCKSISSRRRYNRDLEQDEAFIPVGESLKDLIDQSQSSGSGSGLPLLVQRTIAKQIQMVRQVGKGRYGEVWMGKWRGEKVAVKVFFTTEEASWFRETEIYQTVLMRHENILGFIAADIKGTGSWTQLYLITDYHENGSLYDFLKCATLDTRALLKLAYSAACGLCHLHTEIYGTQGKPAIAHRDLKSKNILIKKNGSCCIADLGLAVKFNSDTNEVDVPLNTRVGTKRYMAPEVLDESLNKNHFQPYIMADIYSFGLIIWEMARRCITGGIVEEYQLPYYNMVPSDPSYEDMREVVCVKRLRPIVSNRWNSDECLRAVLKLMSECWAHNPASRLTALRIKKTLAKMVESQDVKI

[7] = molecular target: Serine/threonine-protein kinase WNK1 (Homo sapiens) (UniProt Q9H4A3); details: Compound concentration 1000.0 nM
[8] = molecular target: Mitogen-activated protein kinase kinase kinase 2 (Homo sapiens) (UniProt Q9Y2U5); details: Compound concentration 1000.0 nM
[9] = molecular target: ATP-sensitive inward rectifier potassium channel 1 isoform X1 (Mesocricetus auratus) (UniProt A0A1U8CU73); assay: K+/KATP/HA Eurofins-Panlabs selectivity data (BI); details: Compound concentration 10.0 uM
Sequence of ATP-sensitive inward rectifier potassium channel 1 isoform X1 (Mesocricetus auratus) (A0A1U8CU73 as listed by the source): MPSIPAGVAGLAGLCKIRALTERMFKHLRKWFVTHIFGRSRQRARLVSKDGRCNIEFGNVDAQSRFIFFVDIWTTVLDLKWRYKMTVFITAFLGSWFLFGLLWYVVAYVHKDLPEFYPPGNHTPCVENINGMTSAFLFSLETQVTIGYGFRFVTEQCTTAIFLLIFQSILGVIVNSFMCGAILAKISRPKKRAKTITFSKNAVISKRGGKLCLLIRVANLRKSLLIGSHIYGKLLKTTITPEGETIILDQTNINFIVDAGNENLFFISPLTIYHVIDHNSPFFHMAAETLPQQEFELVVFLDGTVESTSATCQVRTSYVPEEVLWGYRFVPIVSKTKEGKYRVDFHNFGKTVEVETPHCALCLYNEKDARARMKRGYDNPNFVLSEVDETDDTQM

[10] = molecular target: 5-hydroxytryptamine receptor 1B (Homo sapiens) (UniProt P28222); details: Compound concentration 10.0 uM
Sequence of 5-hydroxytryptamine receptor 1B (Homo sapiens) (P28222 whole entry): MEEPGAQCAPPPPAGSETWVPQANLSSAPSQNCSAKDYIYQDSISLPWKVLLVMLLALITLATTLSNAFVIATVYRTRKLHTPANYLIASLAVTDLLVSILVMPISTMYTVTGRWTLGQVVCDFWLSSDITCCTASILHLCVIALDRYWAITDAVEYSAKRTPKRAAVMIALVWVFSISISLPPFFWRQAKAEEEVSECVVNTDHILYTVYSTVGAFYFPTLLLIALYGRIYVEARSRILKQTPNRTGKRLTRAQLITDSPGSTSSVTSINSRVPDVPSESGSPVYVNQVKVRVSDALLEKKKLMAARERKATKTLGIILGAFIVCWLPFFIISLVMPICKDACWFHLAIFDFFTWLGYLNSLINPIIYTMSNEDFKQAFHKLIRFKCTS

[11] = molecular target: Serine/threonine-protein kinase PknB (Mycobacterium tuberculosis) (UniProt P9WI81); details: Compound concentration 1000.0 nM
[12] = molecular target: Serine/threonine-protein kinase Chk1 (Homo sapiens) (UniProt O14757); details: Compound concentration 1000.0 nM
[13] = molecular target: Myosin light chain kinase, smooth muscle (Homo sapiens) (UniProt Q15746); details: Compound concentration 1000.0 nM
[14] = molecular target: Serine/threonine-protein kinase 16 (Homo sapiens) (UniProt O75716); details: Compound concentration 1000.0 nM
Sequence of Serine/threonine-protein kinase 16 (Homo sapiens) (O75716 whole entry): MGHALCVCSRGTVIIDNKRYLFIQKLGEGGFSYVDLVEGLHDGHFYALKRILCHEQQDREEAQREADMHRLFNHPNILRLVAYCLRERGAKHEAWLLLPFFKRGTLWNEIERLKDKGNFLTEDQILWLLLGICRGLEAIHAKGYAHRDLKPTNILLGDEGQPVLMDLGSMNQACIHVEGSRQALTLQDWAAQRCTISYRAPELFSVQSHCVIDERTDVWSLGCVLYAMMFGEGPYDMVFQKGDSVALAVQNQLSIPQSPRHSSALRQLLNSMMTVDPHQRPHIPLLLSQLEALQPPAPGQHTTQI

[15] = molecular target: GABA-A receptor; anion channel (Rattus norvegicus) (UniProt O09028+P15431+P18506+P18508+P19969+P20236+P23574+P23576+P28471+P28473+P30191+P62813+P63079+P63138+Q91ZM7+Q9ES14); details: Compound concentration 10.0 uM
[16] = molecular target: Receptor tyrosine-protein kinase erbB-4 (Homo sapiens) (UniProt Q15303); details: Compound concentration 1000.0 nM
[17] = molecular target: Serine/threonine-protein kinase PAK 2 (Homo sapiens) (UniProt Q13177); details: Compound concentration 1000.0 nM
[18] = molecular target: Proto-oncogene tyrosine-protein kinase receptor Ret (Homo sapiens) (UniProt P07949); details: Compound concentration 1000.0 nM
[19] = molecular target: Vasopressin V1a receptor (Homo sapiens) (UniProt P37288); assay: V1A/HU Eurofins-Panlabs selectivity data (BI); details: Compound concentration 10.0 uM
[20] = molecular target: Serine/threonine-protein kinase MRCK alpha (Homo sapiens) (UniProt Q5VT25); details: Compound concentration 1000.0 nM
[21] = molecular target: MAP kinase-activated protein kinase 2 (Homo sapiens) (UniProt P49137); details: Compound concentration 1000.0 nM
[22] = test system: Mast/stem cell growth factor receptor Kit (Homo sapiens), P10721 [D816V]; details: Compound concentration 1000.0 nM
[23] = molecular target: Mitogen-activated protein kinase kinase kinase 13 (Homo sapiens) (UniProt O43283); details: Compound concentration 1000.0 nM
[24] = molecular target: LIM domain kinase 1 (Homo sapiens) (UniProt P53667); details: Compound concentration 1000.0 nM
[25] = molecular target: Beta-2 adrenergic receptor (Homo sapiens) (UniProt P07550); details: Compound concentration 10.0 uM
[26] = molecular target: Microtubule-associated serine/threonine-protein kinase 1 (Homo sapiens) (UniProt Q9Y2H9); details: Compound concentration 1000.0 nM
[27] = molecular target: Acetylcholinesterase (Homo sapiens) (UniProt P22303); assay: ACHOLINEST Eurofins-Panlabs selectivity data (BI); details: Compound concentration 10.0 uM
[28] = molecular target: Ephrin type-A receptor 6 (Homo sapiens) (UniProt Q9UF33); details: Compound concentration 1000.0 nM
[29] = molecular target: Inhibitor of nuclear factor kappa-B kinase subunit epsilon (Homo sapiens) (UniProt Q14164); details: Compound concentration 1000.0 nM
[30] = molecular target: Phosphatidylinositol 4-phosphate 5-kinase type-1 alpha (Homo sapiens) (UniProt Q99755); details: Compound concentration 1000.0 nM
[31] = test system: Tyrosine-protein kinase ABL1 (Homo sapiens), P00519 [F317L]; details: Compound concentration 1000.0 nM
[32] = molecular target: Inhibitor of nuclear factor kappa-B kinase subunit beta (Homo sapiens) (UniProt O14920); details: Compound concentration 1000.0 nM
[33] = molecular target: Ephrin type-A receptor 8 (Homo sapiens) (UniProt P29322); details: Compound concentration 1000.0 nM
[34] = molecular target: Protein kinase C theta type (Homo sapiens) (UniProt Q04759); details: Compound concentration 1000.0 nM
Sequence of Protein kinase C theta type (Homo sapiens) (Q04759 whole entry, looked up): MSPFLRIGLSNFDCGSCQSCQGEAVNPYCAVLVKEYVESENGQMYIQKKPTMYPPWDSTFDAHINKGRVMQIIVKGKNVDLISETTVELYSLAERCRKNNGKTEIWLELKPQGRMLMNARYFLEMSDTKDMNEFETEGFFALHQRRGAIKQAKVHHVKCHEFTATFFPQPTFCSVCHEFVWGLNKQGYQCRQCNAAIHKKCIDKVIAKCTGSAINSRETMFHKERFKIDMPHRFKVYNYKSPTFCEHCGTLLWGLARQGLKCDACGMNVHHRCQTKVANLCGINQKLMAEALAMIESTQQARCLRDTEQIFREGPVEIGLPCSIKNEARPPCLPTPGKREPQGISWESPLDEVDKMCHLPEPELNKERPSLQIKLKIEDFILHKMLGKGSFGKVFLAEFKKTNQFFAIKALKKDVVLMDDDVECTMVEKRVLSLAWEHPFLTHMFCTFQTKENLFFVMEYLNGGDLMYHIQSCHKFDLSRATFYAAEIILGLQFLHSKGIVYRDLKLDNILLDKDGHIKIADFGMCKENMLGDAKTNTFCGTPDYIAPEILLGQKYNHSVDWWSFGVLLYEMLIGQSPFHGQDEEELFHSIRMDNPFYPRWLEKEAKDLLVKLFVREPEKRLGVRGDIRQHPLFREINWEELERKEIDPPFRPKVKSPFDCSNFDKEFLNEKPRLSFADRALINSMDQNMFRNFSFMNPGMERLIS

[35] = molecular target: Ephrin type-B receptor 2 (Homo sapiens) (UniProt P29323); details: Compound concentration 1000.0 nM
[36] = molecular target: Cyclin-dependent kinase-like 2 (Homo sapiens) (UniProt Q92772); details: Compound concentration 1000.0 nM
[37] = molecular target: Phosphatidylinositol 4,5-bisphosphate 3-kinase catalytic subunit beta isoform (Homo sapiens) (UniProt P42338); details: Compound concentration 1000.0 nM
[38] = molecular target: TGF-beta receptor type-1 (Homo sapiens) (UniProt P36897); details: Compound concentration 1000.0 nM
Sequence of TGF-beta receptor type-1 (Homo sapiens) (P36897 whole entry): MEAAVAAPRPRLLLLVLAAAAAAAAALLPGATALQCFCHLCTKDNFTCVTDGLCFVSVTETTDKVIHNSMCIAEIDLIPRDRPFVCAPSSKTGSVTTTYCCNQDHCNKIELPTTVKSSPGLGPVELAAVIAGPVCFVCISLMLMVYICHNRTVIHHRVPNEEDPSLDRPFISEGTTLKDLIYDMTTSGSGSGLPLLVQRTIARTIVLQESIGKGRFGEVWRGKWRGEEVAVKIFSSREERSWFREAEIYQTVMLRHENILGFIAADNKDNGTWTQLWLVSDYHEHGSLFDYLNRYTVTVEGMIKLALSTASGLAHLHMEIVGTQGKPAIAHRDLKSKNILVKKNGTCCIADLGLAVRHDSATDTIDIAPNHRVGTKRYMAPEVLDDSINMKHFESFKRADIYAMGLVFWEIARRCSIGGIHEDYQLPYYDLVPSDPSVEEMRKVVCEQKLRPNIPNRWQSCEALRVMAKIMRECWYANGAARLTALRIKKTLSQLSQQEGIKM

[39] = molecular target: Tyrosine-protein kinase Mer (Homo sapiens) (UniProt Q12866); details: Compound concentration 1000.0 nM
[40] = molecular target: Serine/threonine-protein kinase pim-3 (Homo sapiens) (UniProt Q86V86); details: Compound concentration 1000.0 nM
[41] = molecular target: Epithelial discoidin domain-containing receptor 1 (Homo sapiens) (UniProt Q08345); details: Compound concentration 1000.0 nM
Sequence of Epithelial discoidin domain-containing receptor 1 (Homo sapiens) (Q08345 whole entry, the tested form may be a part): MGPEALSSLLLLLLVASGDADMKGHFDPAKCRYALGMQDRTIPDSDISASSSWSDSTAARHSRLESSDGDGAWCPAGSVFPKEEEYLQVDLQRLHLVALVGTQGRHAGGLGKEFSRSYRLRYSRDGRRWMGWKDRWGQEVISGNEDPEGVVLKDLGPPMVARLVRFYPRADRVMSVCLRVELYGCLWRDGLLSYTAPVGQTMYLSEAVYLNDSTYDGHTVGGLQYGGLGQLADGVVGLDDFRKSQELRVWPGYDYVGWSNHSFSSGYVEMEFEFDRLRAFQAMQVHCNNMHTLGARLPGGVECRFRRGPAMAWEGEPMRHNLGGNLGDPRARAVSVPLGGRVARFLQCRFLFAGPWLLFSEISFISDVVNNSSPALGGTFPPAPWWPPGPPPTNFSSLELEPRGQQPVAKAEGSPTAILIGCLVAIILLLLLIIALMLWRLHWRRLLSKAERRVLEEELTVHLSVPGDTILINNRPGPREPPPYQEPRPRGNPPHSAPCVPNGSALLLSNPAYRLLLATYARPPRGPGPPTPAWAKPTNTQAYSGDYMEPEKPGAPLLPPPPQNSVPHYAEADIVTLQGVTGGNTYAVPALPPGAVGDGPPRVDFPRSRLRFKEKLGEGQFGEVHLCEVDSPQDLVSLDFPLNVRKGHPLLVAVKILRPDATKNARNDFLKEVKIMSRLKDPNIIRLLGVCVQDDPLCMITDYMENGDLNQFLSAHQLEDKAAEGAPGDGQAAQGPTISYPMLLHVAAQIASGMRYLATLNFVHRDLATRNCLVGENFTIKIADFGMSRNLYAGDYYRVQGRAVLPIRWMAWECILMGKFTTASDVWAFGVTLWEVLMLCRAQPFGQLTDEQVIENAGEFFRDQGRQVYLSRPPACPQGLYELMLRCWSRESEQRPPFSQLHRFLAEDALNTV

[42] = molecular target: Mitogen-activated protein kinase kinase kinase 1 (Homo sapiens) (UniProt Q13233); details: Compound concentration 1000.0 nM
[43] = molecular target: Serine/threonine-protein kinase TAO1 (Homo sapiens) (UniProt Q7L7X3); details: Compound concentration 1000.0 nM

Sequence of Phosphatidylinositol 4-kinase beta (Homo sapiens) (Q9UBF8 2-816 limits assumed): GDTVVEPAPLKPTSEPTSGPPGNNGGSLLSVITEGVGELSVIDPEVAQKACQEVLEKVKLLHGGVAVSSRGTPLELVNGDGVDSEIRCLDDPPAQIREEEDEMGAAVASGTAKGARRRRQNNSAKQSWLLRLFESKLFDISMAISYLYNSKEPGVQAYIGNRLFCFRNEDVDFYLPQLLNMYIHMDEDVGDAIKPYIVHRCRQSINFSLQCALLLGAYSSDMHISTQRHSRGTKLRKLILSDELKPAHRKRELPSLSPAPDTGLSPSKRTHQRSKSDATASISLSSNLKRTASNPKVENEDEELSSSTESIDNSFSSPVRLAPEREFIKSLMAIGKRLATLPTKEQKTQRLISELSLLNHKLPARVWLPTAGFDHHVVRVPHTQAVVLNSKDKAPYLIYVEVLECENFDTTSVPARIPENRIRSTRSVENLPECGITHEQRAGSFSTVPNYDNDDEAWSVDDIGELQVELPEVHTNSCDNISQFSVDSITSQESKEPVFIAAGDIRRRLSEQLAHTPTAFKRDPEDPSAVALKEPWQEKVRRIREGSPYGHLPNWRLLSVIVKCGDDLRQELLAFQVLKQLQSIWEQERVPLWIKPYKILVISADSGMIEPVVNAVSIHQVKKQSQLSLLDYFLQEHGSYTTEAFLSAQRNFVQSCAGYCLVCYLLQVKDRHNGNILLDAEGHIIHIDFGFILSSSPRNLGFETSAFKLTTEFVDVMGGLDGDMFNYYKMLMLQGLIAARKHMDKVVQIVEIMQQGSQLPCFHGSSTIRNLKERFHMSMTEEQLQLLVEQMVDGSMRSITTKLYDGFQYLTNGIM

Structure (SMILES): CCOCCn1cc(C(=O)Nc2ccc(-n3nc(-c4cccnc4)cc3C(F)(F)F)cn2)ccc1=O [BI 1935]
- residual activity [1]: 100%
- residual activity [2]: 100%
- residual activity [3]: 100%
- residual activity [4]: 105%
- residual activity [5]: 74%
- residual activity [6]: 70%
- residual activity [7]: 82%
- residual activity [8]: 94%
- residual activity [9]: 92%
- inhibition [10]: 18.8%
- residual activity [11]: 95%
- residual activity [12]: 76%
- residual activity [13]: 73%
- residual activity [14]: 92%
- inhibition [15]: 34.3%
- residual activity [16]: 100%
- residual activity [17]: 84%
- residual activity [18]: 83%
- residual activity [19]: 98%
- residual activity [20]: 100%
- residual activity [21]: 100%
- residual activity [22]: 92%
- residual activity [23]: 100%
- residual activity [24]: 84%
- inhibition [25]: -1.17%
- residual activity [26]: 100%
- residual activity [27]: 41%
- residual activity [28]: 93%
- residual activity [29]: 79%
- residual activity [30]: 100%
- residual activity [31]: 79%
- residual activity [32]: 100%
- residual activity [33]: 84%
- residual activity [34]: 73%
- residual activity [35]: 61%
- residual activity [36]: 100%
- residual activity [37]: 82%
- residual activity [38]: 100%
- residual activity [39]: 83%
- residual activity [40]: 90%
- residual activity [41]: 69%
- residual activity [42]: 84%
- residual activity [43]: 87%
